# Data published in patent publication US20220211735A1, “MEDICAMENT AND COMBINATION PRODUCT USED FOR PREVENTING, ALLEVIATING AND/OR TREATING FIBROSIS, AND USE THEREOF” (priority 2019, published 2022).
# Key:
# [1] = in vivo; cited from earlier work
# [2] = test system: COL1A1, TGFB1, ACTA2, MMP2 mRNA in skin fibroblasts CCC-ESF-1; type: cell-based; details: CCC-ESF-1, 20 and 40 μmol/L, TGF-β1 5 ng/ml, 24 hours
# Description: Method for TGFβ1 inducing skin fibroblasts CCC-ESF-1 and administrating Carrimycin and Isovalerylspiramycin I comprises: CCC-ESF-1 was cultured in DMEM, High Glucose, GlutaMAX™ (Gibco 10566016) culture medium containing 10% fetal bovine serum, mixture of 1% penicillin and 1% streptomycin at 37 DEG C and 5% CO2, and was plated in a 6-well according to 3×10^5 cells per well. After culturing for 24 hours, the original culture medium in the 6-well plate was removed by a vacuum pump, and DMEM culture medium without 10% fetal bovine serum was added to be starvation culture for 24 hours. And then TGF-β1 (5 ng/ml) induction was added, and at the same time different concentration gradients of Carrimycin and Isovalerylspiramycin I were added. The concentrations were 20 μmol/L and 40 μmol/L. The following groups were set, control group (without adding TGF-β1 induction), TGF-β1 induction group (only TGF-β1 induction is added) and TGF-β1 induction administration group (both adding TGF-β1 induction and treating with Carrimycin or Isovalerylspiramycin I).
# After culturing for 24 hours, the culture medium was discarded, and the Total RNA of […] were extracted according to the operation steps of the TRIzol instructions. According to the operation steps of the instructions of Roche Transcriptor First Strand cDNA Synthesis Kit, Total RNA of LX-2 was reversely transcribed into cDNA. […]
# [3] = test system: type I collagen α1 promoter COL1A1P; assay: COL1A1 promoter-luciferase reporter gene activity in LX2-COL cells; type: cell-based, human; details: 24 hours
# Description: The constructed monoclonal cells LX2-COL stably expressing the type I collagen al promoter COL1A1P were spread on a 96-well plate with 2×10^4 cells per well. After the cell confluence is about 90%, different concentrations of medicament C (using Carrimycin or Isovalerylspiramycin I) were added, and each group of experiments has 4 replicate holes. Follow the instructions of Bright-Glo™ Luciferase Assay System, the medium in wells were removed after 24 hours, and 50 μl/well of any medium was added to each well. 50 μl of luciferase substrate was added to each well, and detection was performed after 2 min.
# [4] = test system: COL1A1, TGFB1, ACTA2 mRNA in LX-2 cells; assay: Real-time PCR of main fibrosis markers in LX-2 cells induced by TGFβ1; type: cell-based, human; details: TGF-β1 2 ng/ml, 24 hours
# Description: (§1) TGFβ1 induced LX-2 cells and medicament C (using Climycin (HB) or Isovalerylspiramycin I (HY)) administration treatment: LX-2 cells were cultured in DMEM, High Glucose, GlutaMAX™ (Gibco10566016) medium containing 10% fetal bovine serum and mixture of 1% […] and 1% penicillin at 37 DEG C and 5% CO2. 1×10^5 cells per well were plated on a 6-well plate. After 24 hours of culture, the original medium in the 6-well plate was removed by a vacuum pump and added with DMEM medium without 10% fetal bovine serum. After starvation for 24 hours, TGF-β1 (2 ng/ml) was added to induce cell, and different concentration gradients of Carrimycin or Isovalerylspiramycin I were added at the same time, the concentrations were 10 μmol/L and 20 μmol/L respectively. A control group (without adding TGF-β1 induction), TGF-β1 induction group (only TGF-β1 induction) and TGF-β1 induction administration group (both TGF-β1 induction and medicament C treatment) were set.
# After culturing for 24 hours, the medium was discarded, and the total RNA of LX-2 cells were extracted according to the TRIzol instructions. Following the instructions of Roche Transcriptor First Strand cDNA Synthesis Kit, the LX-2 total RNA were to reverse transcribed into cDNA. […]
# [5] = test system: COL1A1, TGFβ1, α-smooth muscle actin protein in LX-2 cells; assay: Western Blot of main fibrosis markers in LX-2 cells induced by TGFβ1; type: cell-based, human; details: 20 μmol/L, TGF-β1 2 ng/ml, 24 hours
# Description: as §1
# After the cells were induced by TGFβ1 and continued to be cultured for 24 hours, 1 ml of Ripa lysis solution (containing 1% PMSF) was added to each well of the 6-well plate to extract the protein. And the protein concentration was determined by the BCA method. The sample was loaded at 25 μg/20 μl per well. […]
# [6] = test system: COL1A1, TGFB1, ACTA2, MMP2 mRNA in lung fibroblasts MRC-5; assay: Real-time PCR of main fibrosis markers in lung fibroblasts MRC-5 induced by TGFβ1; type: cell-based; details: TGF-β1 3 ng/ml, 24 hours
# Description: Method for TGFβ1 inducing lung fibroblasts MRC-5 and administrating Carrimycin or Isovalerylspiramycin I comprises: MRC-5 was cultured in a MEM (Gibco 11095-080) culture medium containing 10% fetal bovine serum, a mixture of 1% penicillin and 1% streptomycin and 1% non-essential amino acids at 37 DEG C and 5% CO2, and was plated in a 6-well according to 3×10^5 cells per well. After culturing for 24 hours, the original culture medium in the 6-well plate was removed by a vacuum pump, and MEM culture medium without 10% fetal bovine serum was added to be starvation culture for 24 hours. And then TGF-β1 (3 ng/ml) induction was added, and at the same time different concentration gradients of Carrimycin and Isovalerylspiramycin I were added. The concentrations were 10 μmol/L, 20 μmol/L, 40 μmol/L. The following groups were set, control group (without adding TGF-β1 induction), TGF-β1 induction group (only TGF-β1 induction is added) and TGF-β1 induction administration group (both adding TGF-β1 induction and treating with Carrimycin or Isovalerylspiramycin I).
# After culturing for 24 hours, the culture medium was discarded, and the Total RNA of MRC-5 cells were extracted according to the operation steps of the TRIzol instructions. According to the operation steps of the instructions of Roche Transcriptor First Strand cDNA Synthesis Kit, Total RNA of […] was reversely transcribed into cDNA. The cDNA, sterile water, Roche FastStart Universal Probe Master (Rox) and ABI TaqMan probes (GAPDH, COL1A1, TGFB1, ACTA2, MMP2) were prepared into a 20 μl reaction system, and the ABI 7500 Fast Real-time PCR System was used for detection. GAPDH was used as an internal control to analyze the results.
compound,measurement,setting,value
Carrimycin,T1/2β,[1],23 to 27 h
CO[C@@H]1[C@@H](O[C@@H]2O[C@H](C)[C@@H](O[C@H]3C[C@@](C)(O)[C@@H](OC(=O)CC(C)C)[C@H](C)O3)[C@H](N(C)C)[C@H]2O)[C@@H](CC=O)C[C@@H](C)[C@@H](O[C@H]2CC[C@H](N(C)C)[C@@H](C)O2)/C=C/C=C/C[C@@H](C)OC(=O)C[C@H]1O [Isovalerylspiramycin I],"inhibition of COL1A1, TGFB1, ACTA2, and MMP2 (mRNA)",[2],significantly inhibit
same,luciferase luminescence (COL1A1 promoter activity),[3]; 40 μM,decreased most significantly
same,inhibitory effect on the activity of the COL1A1 promoter,"[3]; LX2-COL cells, luciferase",significant inhibitory effect
same,"inhibitory effect on COL1A1, TGFB1, and ACTA2 at the mRNA level",[4]; 20 μmol/L,best inhibitory effect
same,"expression of COL1A1, TGFB1, and ACTA2 (mRNA)",[4]; with the increase of the doses (10 and 20 μmol/L),decreased
same,"expression of marker proteins COL1A1, TGFβ1, α-smooth muscle actin",[5],significantly inhibited
same,"effect of inhibiting COL1A1, TGFB1, and ACTA2 at the mRNA level","[6]; MRC-5, 40 μmol/L",the best
same,effect of inhibiting COL1A1 at the mRNA level,"[6]; MRC-5, 40 μmol/L",the best
same,expression of COL1A1 (mRNA),"[6]; MRC-5, with the increase of the dose (10, 20, 40 μmol/L)",decreases
